System: not given
Assay: not given
Settings: not given

SMILES	melting point
CCCCCCCOc1ccc(OCC(=O)Cn2ccc3cc(C(N)=O)ccc32)cc1 [Example 26, 1-[3-(4-Heptyloxyphenoxy)-2-oxopropyl]indole-5-carbamide]	114 °C
CCCCCCCn1ccc2cc(OCC(=O)Cn3ccc4cc(C(N)=O)ccc43)ccc21 [Example 30, 1-[3-(1-Heptylindol-5-yloxy)-2-oxopropyl]indole-5-carbamide]	171 °C
CCCCCCCCc1ccc(OCC(=O)Cn2ncc3ccccc32)cc1	66 to 67 °C
CCCCCCCCc1ccc(OCC(=O)Cn2cc(C=O)c3cc(C(=O)O)ccc32)cc1	193 °C
CCCCCCCCc1ccc(OCC(=O)Cn2ccc3ccccc32)cc1	65 °C
CCCCCCCCc1ccc(OCC(=O)Cn2cc(C(=O)O)c3ccccc32)cc1 [Example 8, 1-[3-(4-Octylphenoxy)-2-oxopropyl]indole-3-carboxylic acid]	182 to 183 °C
CCCCCCCCc1ccc(OCC(=O)Cn2cc(C(=O)OC)c3cc(C(=O)O)ccc32)cc1	208 °C
CCCCCCCCc1ccc(OCC(=O)Cn2cccc2C(=O)O)cc1 [Example 5, 1-[3-(4-Octylphenoxy)-2-oxopropyl]pyrrol-2-carboxylic acid]	157 °C (dec.)
CCCCCCCCc1ccc(OCC(=O)Cn2cc(C(C)(C)C)c3cc(C(=O)O)ccc32)cc1 [Example 18, 3-tert-Butyl-1-[3-(4-octylphenoxy)-2-oxopropyl]indole-5-carboxylic acid]	146 to 147 °C
CCCCCCCCc1ccc(OCC(=O)Cn2cc(C(C)=O)c3cc(C(=O)O)ccc32)cc1	197 °C
CCCCCCCCc1ccc(OCC(=O)Cn2cc(C(C)(C)C)c3ccc(C(=O)O)cc32)cc1 [Example 23, 3-tert-Butyl-1-[3-(4-octylphenoxy)-2-oxopropyl]indole-6-carboxylic acid]	145 to 146 °C
CCCCCCCCc1ccc(OCC(=O)Cn2c(C(=O)O)cc3ccccc32)cc1 [Example 7, 1-[3-(4-Octylphenoxy)-2-oxopropyl]indole-2-carboxylic acid]	173 °C
CCCCCCCCc1ccc(OCC(=O)Cn2ccc3cc(OC)ccc32)cc1 [Example 14, 1-(5-Methoxyindol-1-yl)-3-(4-octylphenoxy)propan-2-one]	85 °C
CCCCCCCCc1ccc(OCC(=O)Cn2ccc3cc(C=O)ccc32)cc1 [Example 16, 1-[3-(4-Octylphenoxy)-2-oxopropyl]indole-5-carbaldehyde]	96 °C
CCCCCCCCc1ccc(OCC(=O)Cn2ccc3cc(Cl)ccc32)cc1 [Example 13, 1-(5-Chloroindol-1-yl)-3-(4-octylphenoxy)propan-2-one]	77 °C
CCCCCCCCc1ccc(OCC(=O)Cn2ccc3cc(C#N)ccc32)cc1 [Example 15, 1-(3-(4-Octylphenoxy)-2-oxopropyl]indole-5-carbonitrile]	96 °C
CCCCCCCCc1ccc(OCC(=O)Cn2cc(Cl)c3cc(C(=O)O)ccc32)cc1 [Example 19, 3-Chloro-1-[3-(4-octylphenoxy)-2-oxopropyl]indole-5-carboxylic acid]	157 °C
CCCCCCCCc1ccc(OCC(=O)Cn2ccc3cc(C(=O)OC)ccc32)cc1 [Example 17, Methyl-1-(3-(4-octylphenoxy)-2-oxopropyl]indole-5-carboxylate]	118 °C
CCCCCCCCc1ccc(OCC(=O)Cn2cccc2)cc1	58 to 59 °C

Target: T1, cytosolic phospholipase A2 (Homo sapiens, UniProt P47712)
T1 construct: endogenous in cells; host or cells: intact human platelets (thrombocytes)
T1 sequence (P47712 1-749): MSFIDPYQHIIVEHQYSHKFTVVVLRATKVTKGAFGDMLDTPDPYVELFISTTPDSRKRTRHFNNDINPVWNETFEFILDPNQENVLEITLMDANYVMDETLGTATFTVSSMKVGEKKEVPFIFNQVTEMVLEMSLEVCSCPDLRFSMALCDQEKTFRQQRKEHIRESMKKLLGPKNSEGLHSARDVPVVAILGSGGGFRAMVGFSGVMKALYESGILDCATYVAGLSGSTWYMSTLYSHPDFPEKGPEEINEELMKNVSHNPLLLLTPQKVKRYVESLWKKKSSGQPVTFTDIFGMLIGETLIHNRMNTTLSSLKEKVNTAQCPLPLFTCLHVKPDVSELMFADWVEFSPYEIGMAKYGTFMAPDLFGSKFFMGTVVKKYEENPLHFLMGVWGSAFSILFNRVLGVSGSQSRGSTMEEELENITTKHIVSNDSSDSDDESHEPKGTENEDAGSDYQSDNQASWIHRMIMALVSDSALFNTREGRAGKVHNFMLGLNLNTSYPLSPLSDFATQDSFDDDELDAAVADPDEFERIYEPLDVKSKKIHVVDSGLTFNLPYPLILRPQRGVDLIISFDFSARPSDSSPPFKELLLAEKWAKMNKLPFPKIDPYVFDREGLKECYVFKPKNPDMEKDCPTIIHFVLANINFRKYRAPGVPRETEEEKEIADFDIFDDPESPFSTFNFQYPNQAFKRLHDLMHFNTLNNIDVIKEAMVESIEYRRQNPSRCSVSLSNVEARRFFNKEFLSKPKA
Assay: Inhibition of cytosolic phospholipase A2 in intact human platelets stimulated with calcium ionophor A23187 (arachidonic acid release, HPLC)
Assay type: cell-based
Settings: concentration of 10 μM, calcium ionophor A23187 stimulation, one collective range for the six compounds, read-out: inhibited the activity of cytosolic phospholipase A2
Description: The effectiveness of the compounds according to the invention can be determined by the inhibition of cytosolic phospholipase A2. To this end, cytosolic phospholipase A2 is stimulated in intact human thrombocytes with calcium ionophor A23187 so as to trigger the release of arachidonic acid from the membrane phospholipids. In order to prevent the metabolization of the enzyme product arachidonic acid via the cyclooxygenase route and the 12-lipoxygenase route, the dual cyclooxygenase/12-lipoxygenase-inhibitor 5,8,11,14-eicosatetraynoic acid is added. Following purification by means of solid phase extraction, the released arachidonic acid is determined by reversed phase-HPLC using U.V. detection. The inhibition of the enzyme by a test substance follows from the ratio of the arachidonic acid amounts formed in the presence or absence of the test substance. More detailed information on the test system is made in Example 10.
The effectiveness of the compounds according to the invention can be determined by the inhibition of cytosolic phospholipase A2. The test method used was described earlier (Lehr M. et al., Arch. Pharm. Pharm. Med. Chem. 2000, 333, 312-314). Here, the arachidonic acid formed by cytosolic phospholipase A2 in intact human platelets following stimulation using calcium ionophor A23187 is detected in the presence and absence of test substances.

SMILES	inhibition at 10 µM
CCCCCCCCc1ccc(OCC(=O)Cn2cc(C(=O)O)c3ccccc32)cc1 [Example 8, 1-[3-(4-Octylphenoxy)-2-oxopropyl]indole-3-carboxylic acid]	40 to 95%
CCCCCCCCc1ccc(OCC(=O)Cn2cccc2C(=O)O)cc1 [Example 5, 1-[3-(4-Octylphenoxy)-2-oxopropyl]pyrrol-2-carboxylic acid]	40 to 95%
CCCCCCCCc1ccc(OCC(=O)Cn2ccc3cc(C(=O)O)ccc32)cc1 [Example 9, 1-[3-(4-Octylphenoxy)-2-oxopropyl]indole-5-carboxylic acid]	40 to 95%
CCCCCCCCc1ccc(OCC(=O)Cn2c(C(=O)O)cc3ccccc32)cc1 [Example 7, 1-[3-(4-Octylphenoxy)-2-oxopropyl]indole-2-carboxylic acid]	40 to 95%
CCCCCCCCc1ccc(OCC(=O)Cn2cccn2)cc1 [Example 2, 1-(4-Octylphenoxy)-3-(pyrazol-1-yl)propan-2-one]	40 to 95%
CCCCCCCCc1ccc(OCC(=O)Cn2ccc(C(=O)O)c2)cc1 [Example 6, 1-[3-(4-Octylphenoxy)-2-oxopropyl]pyrrole-3-carboxylic acid]	40 to 95%
